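Exposure lasted 48 hours, with cells grown in 96-well plates and compounds tested at five concentrations. GI50: concentration for 50% inhibition of growth.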 Active and inactive are the calls of the source. No stated cut-off is given here; in the data, active = GI50 up to about 1.1 µM and inactive = higher.
What was measured:
Assay in all cases: NCI tumour cell line growth inhibition, 48 h
786-0 = system: 786-0
A549 = system: A549
ACHN = system: ACHN
BT-549 = system: BT-549
CCRF-CEM = system: CCRF-CEM
COLO 205 = system: COLO 205
DU-145 = system: DU-145
HCT-116 = system: HCT-116
HCT-15 = system: HCT-15
HL-60 = system: HL-60
HOP-62 = system: HOP-62
HOP-92 = system: HOP-92
HT-29 = system: HT-29
Hs-578T = system: Hs-578T
IGROV-1 = system: IGROV-1
K562 = system: K562
KM12 = system: KM12
LOX IMVI = system: LOX IMVI
M14 = system: M14
MCF7 = system: MCF7
MDA-MB-231 = system: MDA-MB-231
MDA-N = system: MDA-N
MOLT-4 = system: MOLT-4
Malme-3M = system: Malme-3M
NCI-H23 = system: NCI-H23
NCI-H460 = system: NCI-H460
NCI-H522 = system: NCI-H522
NCI/ADR-RES = system: NCI/ADR-RES
OVCAR-4 = system: OVCAR-4
OVCAR-5 = system: OVCAR-5
OVCAR-8 = system: OVCAR-8
PC-3 = system: PC-3
RPMI-8226 = system: RPMI-8226
RXF 393 = system: RXF 393
SF-268 = system: SF-268
SF-295 = system: SF-295
SF-539 = system: SF-539
SK-MEL-28 = system: SK-MEL-28
SK-MEL-2 = system: SK-MEL-2
SK-MEL-5 = system: SK-MEL-5
SK-OV-3 = system: SK-OV-3
SN12C = system: SN12C
SNB-19 = system: SNB-19
SNB-75 = system: SNB-75
SW-620 = system: SW-620
T47D = system: T47D
TK-10 = system: TK-10
U-251 = system: U-251
UACC-257 = system: UACC-257
UACC-62 = system: UACC-62
UO-31 = system: UO-31
A498 = system: A498
CAKI-1 = system: CAKI-1
EKVX = system: EKVX
HCC 2998 = system: HCC 2998
MDA-MB-435 = system: MDA-MB-435
NCI-H226 = system: NCI-H226
OVCAR-3 = system: OVCAR-3
SR = system: SR

`Cc1ccc(S(=O)(=O)NC(=O)NCC(=O)O)cc1` was tested, and the GI50 (786-0) was > 100 µM (inactive), the GI50 (A549) was > 100 µM (inactive) and the GI50 (ACHN) was > 100 µM (inactive). The GI50 (BT-549) was > 100 µM (inactive), the GI50 (CCRF-CEM) was > 100 µM (inactive) and the GI50 (COLO 205) was > 100 µM (inactive). For the same compound, the GI50 (DU-145) was > 100 µM (inactive), the GI50 (HCT-116) was > 100 µM (inactive) and the GI50 (HCT-15) was > 100 µM. The GI50 (HL-60) was > 100 µM (inactive), the GI50 (HOP-62) was > 100 µM (inactive) and the GI50 (HOP-92) was > 100 µM (inactive). The GI50 (HT-29) was > 100 µM (inactive), the GI50 (Hs-578T) was > 100 µM (inactive) and the GI50 (IGROV-1) was > 100 µM (inactive). For the same compound, the GI50 (K562) was > 100 µM (inactive), the GI50 (KM12) was > 100 µM (inactive) and the GI50 (LOX IMVI) was > 100 µM (inactive). For the same compound, the GI50 (M14) was > 100 µM (inactive), the GI50 (MCF7) was > 100 µM (inactive) and the GI50 (MDA-MB-231) was > 100 µM (inactive). For the same compound, the GI50 (MDA-N) was > 100 µM (inactive), the GI50 (MOLT-4) was > 100 µM (inactive) and the GI50 (Malme-3M) was > 100 µM (inactive). For the same compound, the GI50 (NCI-H23) was > 100 µM (inactive), the GI50 (NCI-H460) was > 100 µM (inactive) and the GI50 (NCI-H522) was > 100 µM (inactive). The GI50 (NCI/ADR-RES) was > 100 µM (inactive), the GI50 (OVCAR-4) was > 100 µM (inactive) and the GI50 (OVCAR-5) was > 100 µM (inactive). For the same compound, the GI50 (OVCAR-8) was > 100 µM (inactive), the GI50 (PC-3) was > 100 µM (inactive) and the GI50 (RPMI-8226) was > 100 µM (inactive). The GI50 (RXF 393) was > 100 µM (inactive), the GI50 (SF-268) was > 100 µM (inactive) and the GI50 (SF-295) was > 100 µM (inactive). For the same compound, the GI50 (SF-539) was > 100 µM (inactive), the GI50 (SK-MEL-28) was > 100 µM (inactive) and the GI50 (SK-MEL-2) was > 100 µM (inactive). The GI50 (SK-MEL-5) was > 100 µM (inactive), the GI50 (SK-OV-3) was > 100 µM (inactive) and the GI50 (SN12C) was > 100 µM (inactive). The GI50 (SNB-19) was > 100 µM (inactive), the GI50 (SNB-75) was > 100 µM (inactive) and the GI50 (SW-620) was > 100 µM (inactive). For the same compound, the GI50 (T47D) was > 100 µM (inactive), the GI50 (TK-10) was > 100 µM (inactive) and the GI50 (U-251) was > 100 µM (inactive). The GI50 (UACC-257) was > 100 µM (inactive), the GI50 (UACC-62) was > 100 µM (inactive) and the GI50 (UO-31) was > 100 µM (inactive).

For `COC(=O)/C=C/C1(O)C=CC(=O)C=C1`, the GI50 (786-0) was 2.23 µM (inactive), the GI50 (A498) was 26.9 µM (inactive) and the GI50 (A549) was 8.3 µM (inactive). The GI50 (ACHN) was 2.1 µM (inactive), the GI50 (BT-549) was 5.27 µM (inactive) and the GI50 (CAKI-1) was 1.41 µM (inactive). The GI50 (CCRF-CEM) was 1.77 µM (inactive), the GI50 (COLO 205) was 3.4 µM (inactive) and the GI50 (DU-145) was 2.59 µM (inactive). For the same compound, the GI50 (EKVX) was 3.61 µM (inactive), the GI50 (HCC 2998) was 7.52 µM (inactive) and the GI50 (HCT-116) was 1.88 µM (inactive). The GI50 (HCT-15) was 2.66 µM, the GI50 (HL-60) was 2.38 µM (inactive) and the GI50 (HOP-62) was 4.37 µM (inactive). The GI50 (HOP-92) was 3.66 µM (inactive), the GI50 (HT-29) was 2.51 µM (inactive) and the GI50 (IGROV-1) was 2.69 µM (inactive). The GI50 (K562) was 3.15 µM (inactive), the GI50 (KM12) was 2.32 µM (inactive) and the GI50 (LOX IMVI) was 2.07 µM (inactive). The GI50 (M14) was 1.79 µM (inactive), the GI50 (MCF7) was 2.87 µM (inactive) and the GI50 (MDA-MB-231) was 2.95 µM (inactive). The GI50 (MDA-MB-435) was 5.13 µM (inactive), the GI50 (MDA-N) was 1.89 µM (inactive) and the GI50 (MOLT-4) was 2.02 µM (inactive). For the same compound, the GI50 (Malme-3M) was 2.62 µM (inactive), the GI50 (NCI-H226) was 19.6 µM (inactive) and the GI50 (NCI-H23) was 3.31 µM (inactive). For the same compound, the GI50 (NCI-H460) was 16.3 µM (inactive), the GI50 (NCI-H522) was 0.338 µM (active) and the GI50 (NCI/ADR-RES) was 3.5 µM (inactive). The GI50 (OVCAR-3) was 2.17 µM (inactive), the GI50 (OVCAR-4) was 3.94 µM (inactive) and the GI50 (OVCAR-5) was 5.78 µM (inactive). For the same compound, the GI50 (OVCAR-8) was 3.4 µM (inactive), the GI50 (PC-3) was 2.34 µM (inactive) and the GI50 (RPMI-8226) was 2.45 µM (inactive). For the same compound, the GI50 (RXF 393) was 3.12 µM (inactive), the GI50 (SF-268) was 2.22 µM (inactive) and the GI50 (SF-295) was 11 µM (inactive). The GI50 (SF-539) was 2.15 µM (inactive), the GI50 (SK-MEL-28) was 3.44 µM (inactive) and the GI50 (SK-MEL-2) was 6.32 µM (inactive). For the same compound, the GI50 (SK-MEL-5) was 4.65 µM (inactive), the GI50 (SK-OV-3) was 17 µM (inactive) and the GI50 (SN12C) was 1.77 µM (inactive). The GI50 (SNB-19) was 3.83 µM (inactive), the GI50 (SNB-75) was 9.86 µM (inactive) and the GI50 (SR) was 2.55 µM (inactive). The GI50 (SW-620) was 5.7 µM (inactive), the GI50 (T47D) was 2.67 µM (inactive) and the GI50 (TK-10) was 5.37 µM (inactive). For the same compound, the GI50 (U-251) was 3.67 µM (inactive), the GI50 (UACC-257) was 3.3 µM (inactive) and the GI50 (UACC-62) was 3 µM (inactive). For the same compound, the GI50 (UO-31) was 1.7 µM (inactive).

With `CCc1c2c(nc3ccc(O)cc13)-c1cc3c(c(=O)n1C2)COC(=O)[C@]3(O)CC` [7-ETHYL-10-HYDROXYCAMPTOTHECIN] the GI50 (786-0) was < 0.001 µM (active), the GI50 (A549) was 0.0525 µM (active) and the GI50 (ACHN) was < 0.001 µM (active). For the same compound, the GI50 (BT-549) was < 0.001 µM (active), the GI50 (CAKI-1) was < 0.001 µM (active) and the GI50 (CCRF-CEM) was < 0.001 µM (active). For the same compound, the GI50 (COLO 205) was 0.0556 µM (active), the GI50 (DU-145) was < 0.001 µM (active) and the GI50 (EKVX) was 0.178 µM (active). The GI50 (HCT-116) was 0.402 µM (active), the GI50 (HCT-15) was 0.00711 µM and the GI50 (HL-60) was < 0.001 µM (active). The GI50 (HOP-62) was < 0.001 µM (active), the GI50 (Hs-578T) was 0.0791 µM (active) and the GI50 (KM12) was 0.0212 µM (active). For the same compound, the GI50 (LOX IMVI) was < 0.001 µM (active), the GI50 (M14) was < 0.001 µM (active) and the GI50 (MCF7) was 0.01 µM (active). The GI50 (MDA-MB-231) was 0.00344 µM (active), the GI50 (MDA-N) was 0.00206 µM (active) and the GI50 (MOLT-4) was < 0.001 µM (active). For the same compound, the GI50 (NCI-H226) was < 0.001 µM (active), the GI50 (NCI-H23) was < 0.001 µM (active) and the GI50 (NCI-H460) was < 0.001 µM (active). For the same compound, the GI50 (OVCAR-3) was 0.0116 µM (active), the GI50 (OVCAR-4) was 0.00227 µM (active) and the GI50 (OVCAR-5) was 0.00472 µM (active). The GI50 (PC-3) was 0.00746 µM (active), the GI50 (RPMI-8226) was 0.236 µM (active) and the GI50 (SF-268) was < 0.001 µM (active). The GI50 (SF-295) was < 0.001 µM (active), the GI50 (SF-539) was < 0.001 µM (active) and the GI50 (SK-MEL-28) was 0.0194 µM (active). For the same compound, the GI50 (SK-MEL-2) was 0.0231 µM (active), the GI50 (SN12C) was < 0.001 µM (active) and the GI50 (SNB-19) was < 0.001 µM (active). For the same compound, the GI50 (SR) was < 0.001 µM (active), the GI50 (T47D) was < 0.001 µM (active) and the GI50 (TK-10) was 0.0933 µM (active). The GI50 (U-251) was < 0.001 µM (active), the GI50 (UACC-257) was 0.013 µM (active) and the GI50 (UACC-62) was < 0.001 µM (active).

From ChEMBL document CHEMBL1201862, “PubChem BioAssay data set” (2004)
